Columns and labels:
[1] = target: T1, His-TEV-DYRK1A Kinase domain (aa127-485) (Homo sapiens, UniProt Q13627); assay: Kinase ADP assay (ADP Hunter), DYRK1A kinase domain; type: biochemical; conditions: 20 μM ATP
T1 construct: His-TEV-DYRK1A Kinase domain (aa127-485); His tag (N); TEV protease cleavage site (N)
In short: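 Compounds incubated 10 min at 30 °C with 20 nM enzyme, 40 μM peptide substrate and 20 μM ATP in pH 7.4 Hepes buffer with 10 mM MgCl2. ADP formed detected by ADP Hunter Plus reagents after 20 min at 30 °C, fluorescence read at 590 nm.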

DYRK1A [2] = target: T2, DYRK1A (Homo sapiens, UniProt Q13627); assay: Cellular DYRK1 autophosphorylation assay in U2-OS cells; type: cell-based; parameters: full-length, wild-type human DYRK1A (NM_001396) with an HA tag; expressed in transfected cells; host or cells: human U2-OS osteosarcoma cells, transient transfection of a pcDNA3.1 plasmid; conditions: U2-OS cells transfected with HA-tagged human DYRK1A, 5 hours exposure; read-out: IC50 (μM) P-Ser520-Dyrk1A -Cell assay
In short: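 U2-OS cells treated with a compound concentration range for 5 h. Phospho-Ser520-DYRK1A measured by western blot densitometry or Mesoscale ELISA. IC50 from dose-response curves; for blots, ratio of phospho-Ser520 to total DYRK1A signal.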

DYRK1A [3] = target: T2, DYRK1A; assay: Kinase TR-FRET assay, DYRK1A; type: biochemical; parameters: full-length, wild-type human DYRK1A (NM_001396) with an HA tag; expressed in transfected cells; host or cells: human U2-OS osteosarcoma cells, transient transfection of a pcDNA3.1 plasmid; conditions: full-length human kinase, 10 μM ATP
Procedure: (§1) Inhibition of the enzymatic activity of human kinases was evaluated in a Time-Resolved Fluorescence Resonance Energy Transfer (TR-FRET) assay in 384-well reaction plates. […] Test compounds of the invention were added in reaction buffer at a range of concentrations from 0.1 nM to 30 μM. Following addition of EDTA (Sigma E7889, 10 mM) to stop the reaction, Europium-labelled mouse monoclonal antibody recognizing phospho-Thr232 in MBP (Perkin Elmer TRF0201, 1 nM) was added.

CDK9 = target: T3, CDK9 (Homo sapiens, UniProt P50750); assay: Kinase TR-FRET assay, CDK9; type: biochemical; conditions: full-length human kinase, 10 μM ATP
T3 construct: full-length human kinases from Carna Biosciences; purchased Carna Biosciences 04-110
T3 sequence (P50750 whole entry): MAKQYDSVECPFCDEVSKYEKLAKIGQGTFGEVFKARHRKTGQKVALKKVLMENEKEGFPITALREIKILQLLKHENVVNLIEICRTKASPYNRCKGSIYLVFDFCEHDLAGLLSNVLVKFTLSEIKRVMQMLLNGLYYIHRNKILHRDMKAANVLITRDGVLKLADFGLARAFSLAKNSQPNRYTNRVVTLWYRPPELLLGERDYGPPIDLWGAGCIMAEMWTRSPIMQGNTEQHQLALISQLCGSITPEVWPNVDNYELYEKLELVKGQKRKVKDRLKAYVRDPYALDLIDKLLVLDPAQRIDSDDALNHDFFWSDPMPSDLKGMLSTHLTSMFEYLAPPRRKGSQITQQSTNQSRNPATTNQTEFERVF
T3 sequence (O60563 whole entry partner): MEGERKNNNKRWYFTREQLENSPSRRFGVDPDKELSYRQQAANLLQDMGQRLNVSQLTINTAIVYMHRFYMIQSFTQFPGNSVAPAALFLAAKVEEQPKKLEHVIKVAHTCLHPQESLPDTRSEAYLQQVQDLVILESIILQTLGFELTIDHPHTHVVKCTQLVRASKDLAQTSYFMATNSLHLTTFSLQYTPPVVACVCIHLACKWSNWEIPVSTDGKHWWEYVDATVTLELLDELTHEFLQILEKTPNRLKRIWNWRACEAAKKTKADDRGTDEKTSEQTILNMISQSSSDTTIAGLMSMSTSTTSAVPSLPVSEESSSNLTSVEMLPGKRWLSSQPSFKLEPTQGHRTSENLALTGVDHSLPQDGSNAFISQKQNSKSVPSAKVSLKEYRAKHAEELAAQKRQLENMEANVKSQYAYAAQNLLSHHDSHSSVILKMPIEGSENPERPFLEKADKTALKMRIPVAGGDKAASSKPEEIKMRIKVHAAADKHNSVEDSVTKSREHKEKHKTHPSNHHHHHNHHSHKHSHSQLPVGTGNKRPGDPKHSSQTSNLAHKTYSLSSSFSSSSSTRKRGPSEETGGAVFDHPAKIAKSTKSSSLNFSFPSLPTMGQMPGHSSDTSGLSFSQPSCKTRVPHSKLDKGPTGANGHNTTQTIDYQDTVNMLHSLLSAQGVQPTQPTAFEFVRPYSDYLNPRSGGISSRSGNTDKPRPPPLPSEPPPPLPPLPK
Procedure: Inhibition of the enzymatic activity of human kinases was evaluated in a Time-Resolved Fluorescence Resonance Energy Transfer (TR-FRET) assay in 384-well reaction plates. In this assay, full-length human kinases from Carna Biosciences—DYRK1A (NM_001396, ref. 04-130; 2.0 ng/μl), DYRK1B (NM_004714, ref. 04-131; 1.2 ng/p), CLK1 (NM_001162407, ref. 04-126; 0.7 ng/μl), CDK9 (NM_001261, ref. 04-110; 0.9 ng/μl), or GSK3β (NM_001146156, ref. 04-141; 2.0 ng/μl—were incubated for 40 minutes (DYRK1A and DYRK1B) or 100 minutes (CLK1, CDK9 and GSK3β) at room temperature with ATP (Sigma A2383, 10 μM) and a ULight™-labelled human Myelin Basic Protein (MBP) peptide substrate (Perkin Elmer TRF0109, 100 nM) in a reaction buffer composed of 50 mM HEPES pH7.4, 1 mM EGTA, 10 mM MgCl2, 2 mM DTT and 0.01% Tween20. Test compounds of the invention were added in reaction buffer at a range of concentrations from 0.1 nM to 30 μM. Following addition of EDTA (Sigma E7889, 10 mM) to stop the reaction, Europium-labelled mouse monoclonal antibody recognizing phospho-Thr232 in MBP (Perkin Elmer TRF0201, 1 nM) was added. After one hour, the reaction plates were read using a fluorescence reader (EnVision®, Perkin Elmer) at 620 nm and 665 nm (excitation at 340 nm); when the Europium donor fluorophore is excited by light at 340 nm, an energy transfer (620 nm) to the acceptor occurs, which will then emit light at 665 nm.

DYRK1B = target: T4, DYRK1B (Homo sapiens, UniProt Q9Y463); assay: Kinase TR-FRET assay, DYRK1B; type: biochemical; conditions: full-length human kinase, 10 μM ATP
T4 construct: full-length human kinases from Carna Biosciences; purchased Carna Biosciences 04-131
T4 sequence (Q9Y463 whole entry): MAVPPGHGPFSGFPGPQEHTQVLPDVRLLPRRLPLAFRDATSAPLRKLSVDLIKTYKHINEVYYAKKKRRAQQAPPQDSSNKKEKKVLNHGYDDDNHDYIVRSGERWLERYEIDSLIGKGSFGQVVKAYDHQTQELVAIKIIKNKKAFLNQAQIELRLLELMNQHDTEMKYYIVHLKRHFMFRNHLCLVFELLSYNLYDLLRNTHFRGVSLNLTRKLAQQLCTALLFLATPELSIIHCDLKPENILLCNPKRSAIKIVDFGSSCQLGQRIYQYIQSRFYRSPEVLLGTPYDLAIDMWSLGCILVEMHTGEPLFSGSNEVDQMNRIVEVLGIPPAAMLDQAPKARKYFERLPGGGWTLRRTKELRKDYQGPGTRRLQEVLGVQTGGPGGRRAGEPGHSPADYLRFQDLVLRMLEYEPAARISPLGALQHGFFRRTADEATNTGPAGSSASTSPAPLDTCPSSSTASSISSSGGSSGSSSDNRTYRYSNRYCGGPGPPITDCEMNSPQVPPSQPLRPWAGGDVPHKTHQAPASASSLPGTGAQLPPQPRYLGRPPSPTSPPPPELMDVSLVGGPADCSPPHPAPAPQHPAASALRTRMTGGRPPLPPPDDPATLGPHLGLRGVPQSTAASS
Procedure: as §1

Compound | IC50 [1] [µM] | IC50 (DYRK1A [2]) [µM] | IC50 (DYRK1A [3]) [µM] | IC50 (CDK9) [µM] | IC50 (DYRK1B) [µM]
Cc1nc2ccc(-c3cc(N)nc(N)c3)nc2n1Cc1ccncc1 [Example 5, 4-[2-methyl-3-(pyridin-4-ylmethyl)-3H-imidazo[4,5-b]pyridin-5-yl]pyridine-2,6-diamine] | 0.02 | 1 | 0.006 | 6.56 | 
Cc1nc2ccc(-c3cc(N)nc(N)c3)nc2n1Cc1ccccn1 [Example 6, 4-[2-methyl-3-(pyridin-2-ylmethyl)-3H-imidazo[4,5-b]pyridin-5-yl]pyridine-2,6-diamine] | 0.493 |  | 0.155 | 1.09 | 0.149
Cc1nc2ccc(-c3cc(N)nc(N)c3)nc2n1Cc1cccnc1 [Example 7, 4-[2-methyl-3-(pyridin-3-ylmethyl)-3H-imidazo[4,5-b]pyridin-5-yl]pyridine-2,6-diamine] | 0.079 |  | 0.07 | 2.38 | 
Cc1nc2ccc(-c3cc(N)nc(N)c3)nc2n1CC1CC1 [Example 11, 4-[3-(cyclopropylmethyl)-2-methyl-3H-imidazo[4,5-b]pyridin-5-yl]pyridine-2,6-diamine] | 0.011 | 0.17 | 0.004 | 3.45 | 
Cc1nc2ccc(-c3cc(N)nc(N)c3)nc2n1C1Cc2ccccc2C1 [Example 12, 4-[3-(2,3-dihydro-1H-inden-2-yl)-2-methyl-3H-imidazo[4,5-b]pyridin-5-yl]pyridine-2,6-diamine] | 0.009 | 0.07 | 0.002 |  | 0.003
Cc1nc2ccc(-c3cc(N)nc(N)c3)nc2n1CC(F)(F)F [Example 28, 4-[2-methyl-3-(2,2,2-trifluoroethyl)-3H-imidazo[4,5-b]pyridin-5-yl]pyridine-2,6-diamine] |  |  |  | 5.7 | 
Cc1nc2ccc(-c3cc(N)nc(N)c3)nc2n1Cc1cc(OC(F)(F)F)ccc1F [Example 50, 4-{3-[2-fluoro-5-(trifluoromethoxy)benzyl]-2-methyl-3H-imidazo[4,5-b]pyridin-5-yl}pyridine-2,6-diamine] | 0.057 |  | 0.029 | 1.99 | 
Cc1nc2ccc(-c3cc(N)nc(N)c3)nc2n1C(C)C [Example 53, 4-[2-methyl-3-(propan-2-yl)-3H-imidazo[4,5-b]pyridin-5-yl]pyridine-2,6-diamine] |  |  |  | 1.31 | 
Cc1nc2ccc(-c3cc(N)nc(N)c3)nc2n1CC1CCCCC1 [Example 55, 4-[3-(cyclohexylmethyl)-2-methyl-3H-imidazo[4,5-b]pyridin-5-yl]pyridine-2,6-diamine] | 0.024 | 0.16 | 0.002 |  | 0.021
CCc1nc2ccc(-c3cc(N)nc(N)c3)nc2n1C1Cc2ccccc2C1 [Example 158, 4-[3-(2,3-dihydro-1H-inden-2-yl)-2-ethyl-3H-imidazo[4,5-b]pyridin-5-yl]pyridine-2,6-diamine] | 0.014 |  | 0.008 |  | 0.016
CCCc1nc2ccc(-c3cc(N)nc(N)c3)nc2n1C1CCCC1 [Example 160, 4-(3-cyclopentyl-2-propyl-3H-imidazo[4,5-b]pyridin-5-yl)pyridine-2,6-diamine] | 0.024 | 0.144 | 0.003 |  | 0.068
Cn1c(C(F)F)nc2ccc(-c3cc(N)nc(N)c3)nc21 [Example 228, 4-[2-(difluoromethyl)-3-methyl-3H-imidazo[4,5-b]pyridin-5-yl]pyridine-2,6-diamine] | 0.01 |  | 0.004 |  | 0.012
CCCCn1c(C)nc2ccc(-c3ccnc(N)c3)nc21 [Example 236, 4-(3-butyl-2-methyl-3H-imidazo[4,5-b]pyridin-5-yl)pyridin-2-amine] | 0.023 |  | 0.013 |  | 0.018
Cc1nc2ccc(-c3ccnc(N)c3)nc2n1CC1CC1 [Example 238, 4-[3-(cyclopropylmethyl)-2-methyl-3H-imidazo[4,5-b]pyridin-5-yl]pyridin-2-amine] | 0.05 |  | 0.009 |  | 0.02

More lines, in order of falling IC50 [1], values ahead:

IC50 [1] [µM] | IC50 (DYRK1A [2]) [µM] | IC50 (DYRK1A [3]) [µM] | IC50 (CDK9) [µM] | IC50 (DYRK1B) [µM] | Compound
0.236 |  | 0.09 |  |  | CCCCn1c(C)nc2ccc(-c3cc(N)nc(NC(=O)C4CCCCC4)c3)nc21 [Example 234, N-[6-amino-4-(3-butyl-2-methyl-3H-imidazo[4,5-b]pyridin-5-yl)pyridin-2-yl]cyclohexanecarboxamide]
0.053 |  | 0.015 | 12.5 |  | Cc1nc2ccc(-c3cc(N)nc(N)c3)nc2n1CCc1cnn(-c2ccccc2)c1 [Example 21, 4-{2-methyl-3-[2-(1-phenyl-1H-pyrazol-4-yl)ethyl]-3H-imidazo[4,5-b]pyridin-5-yl}pyridine-2,6-diamine]
0.02 | 0.23 | 0.02 | 2.57 |  | Cc1nc2ccc(-c3cc(N)nc(N)c3)nc2n1CCO [Example 3, 2-[5-(2,6-diaminopyridin-4-yl)-2-methyl-3H-imidazo[4,5-b]pyridin-3-yl]ethanol]
0.015 |  | 0.009 | 0.357 |  | Cc1nc2ccc(-c3cc(N)nc(N)c3)nc2n1C12CC3CC(CC(C3)C1)C2 [Example 56, 4-{2-methyl-3-tricyclo[3.3.1.1^3,7]dec-1-yl-3H-imidazo[4,5-b]pyridin-5-yl}pyridine-2,6-diamine]
0.013 | 0.108 | 0.002 |  |  | CCC(CC)Cn1c(C)nc2ccc(-c3cc(N)nc(N)c3)nc21 [Example 18, 4-[3-(2-ethylbutyl)-2-methyl-3H-imidazo[4,5-b]pyridin-5-yl]pyridine-2,6-diamine]
0.011 | 0.25 | 0.015 | 1.26 |  | Cc1nc2ccc(-c3cc(N)nc(N)c3)nc2n1C [Example 4, 4-(2,3-dimethyl-3H-imidazo[4,5-b]pyridin-5-yl)pyridine-2,6-diamine]
0.011 | 0.063 | 0.006 |  |  | Cc1nc2ccc(-c3cc(N)nc(N)c3)nc2n1CCC1CC1 [Example 17, 4-[3-(2-cyclopropylethyl)-2-methyl-3H-imidazo[4,5-b]pyridin-5-yl]pyridine-2,6-diamine]
0.011 | 0.023 | 0.019 |  |  | CSCCCn1c(C)nc2ccc(-c3cc(N)nc(N)c3)nc21 [Example 44, 4-{2-methyl-3-[3-(methylsulfanyl)propyl]-3H-imidazo[4,5-b]pyridin-5-yl}pyridine-2,6-diamine]
0.006 |  | 0.006 |  | 0.008 | Cc1nc2ccc(-c3cc(N)nc(N)c3)nc2n1CCC(C)(C)C [Example 52, 4-[3-(3,3-dimethylbutyl)-2-methyl-3H-imidazo[4,5-b]pyridin-5-yl]pyridine-2,6-diamine]
0.006 | 0.023 | 0.003 |  | 0.003 | Cc1nc2ccc(-c3cc(N)nc(N)c3)nc2n1C1CCCCC1 [Example 54, 4-(3-cyclohexyl-2-methyl-3H-imidazo[4,5-b]pyridin-5-yl)pyridine-2,6-diamine]

Reference: patent US20180273528A1 (LES LABORATOIRES SERVIER, priority 2015, published 2018)
